Measurements reported in patent US20110015080A1, “Solution-based methods for RNA expression profiling” (MASSACHUSETTS INSTITUTE OF TECHNOLOGY, priority 2005, published 2011).
Values joined by “and” are separate entries in the source; they are usually repeats but may differ in a detail not shown here. Identical values can stand only once.

Test system: HL60 (human promyelocytic leukemia) cells
Assay: LMA-FlexMAP bead-based gene expression signature analysis of total RNA from HL60 cells treated with tretinoin or DMSO (ninety transcripts); on FlexMap NM 003332 LUA#43: test concentration or dose not given here
Details: replicate columns
[1] = Experiment 2, HL60 cells, Tretinoin-treated

CC1=C(/C=C/C(C)=C/C=C/C(C)=C/C(=O)O)C(C)(C)CCC1 [tretinoin, all-trans-retinoic acid]
FlexMap NM_003132 LUA#68 (Experiment 2, Tretinoin): 635 and 618 and 721 and 690.5 and 680 and 633 and 648 and 716
FlexMap NM_003172 LUA#19 (Experiment 2, Tretinoin): 333 (2×) and 312.5 and 370 and 365 and 330 and 352 and 380
FlexMap NM_003332 LUA#43 (Experiment 2, Tretinoin): 2733 and 2691.5 and 2589.5 and 2832 and 2821 and 2704 and 2692 and 2772
FlexMap NM_003581 LUA#62 (Experiment 2, Tretinoin): 55 (2×) and 54 and 114 and 78 and 85 and 59.5 and 53
FlexMap NM_003644 LUA#17 (Experiment 2, Tretinoin): 274 (2×) and 259 and 319 and 269 and 192 and 231 and 300
FlexMap NM_003752 LUA#82 (Experiment 2, Tretinoin): 139 and 142 and 168 and 149.5 and 150 and 153 and 162 and 164
FlexMap NM_003879 LUA#24 (Experiment 2, Tretinoin): 95 and 96.5 and 93 and 91.5 and 86 and 84 and 82 and 97
FlexMap NM_004079 LUA#21 (Experiment 2, Tretinoin): 150 and 147 and 144 and 133 and 133.5 and 142 and 143 and 152
FlexMap NM_004095 LUA#59 (Experiment 2, Tretinoin): 293 (2×) and 227 and 287 and 286.5 and 270 and 294 and 331
FlexMap NM_004106 LUA#44 (Experiment 2, Tretinoin): 1697 and 1748 and 1762 and 1756 and 1799 and 1678 and 1587.5 and 1827
FlexMap NM_004134 LUA#76 (Experiment 2, Tretinoin): 406 and 372 and 423.5 and 417 and 415 (2×) and 383 and 426
FlexMap NM_004152 LUA#31 (Experiment 2, Tretinoin): 2347 and 1882 and 2313 and 2471.5 and 2477.5 and 2269 and 2335.5 and 2470
FlexMap NM_004526 LUA#88 (Experiment 2, Tretinoin): 256 and 233 and 244 and 270 and 260 and 240.5 and 243 and 277
FlexMap NM_004602 LUA#32 (Experiment 2, Tretinoin): 303 and 274 and 320 and 337 and 334 and 363 and 355.5 and 296
FlexMap NM_004723 LUA#20 (Experiment 2, Tretinoin): 501 and 420 and 472.5 and 498 and 506 and 470 and 487.5 and 538
FlexMap NM_004741 LUA#89 (Experiment 2, Tretinoin): 402.5 and 370.5 and 329 and 324 and 317 and 325 and 328
FlexMap NM_004759 LUA#37 (Experiment 2, Tretinoin): 206.5 and 235 and 284 and 179 and 207.5 and 192 and 195 and 201
FlexMap NM_005008 LUA#77 (Experiment 2, Tretinoin): 452.5 (2×) and 393 and 501 and 482 and 432 and 439.5 and 502.5
FlexMap NM_005375 LUA#86 (Experiment 2, Tretinoin): 565 and 642 and 552 and 568 and 593 and 585 and 589 and 587
FlexMap NM_005566 LUA#85 (Experiment 2, Tretinoin): 744 and 745 and 851 and 821 and 830 and 748 and 752 and 776.5
FlexMap NM_005914 LUA#60 (Experiment 2, Tretinoin): 1161.5 and 1104 and 871 and 1091 and 1131 and 1081.5 and 1125 and 1172.5
FlexMap NM_005915 LUA#72 (Experiment 2, Tretinoin): 47 (4×) and 43 and 44 and 49 and 54
FlexMap NM_005952 LUA#66 (Experiment 2, Tretinoin): 243 and 261.5 and 265 and 274 and 260 and 263 and 224 and 268
FlexMap NM_005980 LUA#73 (Experiment 2, Tretinoin): 202 and 190 and 197 and 212 and 204 and 187 and 188 and 209.5
FlexMap NM_006019 LUA#35 (Experiment 2, Tretinoin): 907 and 1033 and 1059 and 938.5 and 911.5 and 862 and 871 and 956
FlexMap NM_006138 LUA#56 (Experiment 2, Tretinoin): 124 and 117 and 115.5 and 111 and 127 and 118 and 119.5 and 120
FlexMap NM_006432 LUA#27 (Experiment 2, Tretinoin): 1693 and 1842 and 1767 and 1718 and 1798 and 1725 and 1678 and 1814
FlexMap NM_006452 LUA#71 (Experiment 2, Tretinoin): 86 (2×) and 83.5 and 93 and 90 (2×) and 88 and 96
FlexMap NM_006985 LUA#58 (Experiment 2, Tretinoin): 56 and 50 (2×) and 55 and 52 and 54 and 60 and 63
FlexMap NM_007282 LUA#16 (Experiment 2, Tretinoin): 58 and 53 and 61 (2×) and 69 and 64 and 59 and 62
FlexMap NM_014333 LUA#26 (Experiment 2, Tretinoin): 720 (2×) and 704 and 706 and 712 and 662 and 633.5 and 726.5
FlexMap NM_014366 LUA#61 (Experiment 2, Tretinoin): 298.5 and 321 and 304.5 and 297 and 291 and 286.5 and 300 and 310.5
FlexMap NM_014573 LUA#70 (Experiment 2, Tretinoin): 178 and 154 and 187 and 179 and 161.5 and 172 and 157.5 and 198
FlexMap NM_015201 LUA#57 (Experiment 2, Tretinoin): 241 and 245.5 and 266 and 252 and 243 and 230 and 244 and 268.5
FlexMap NM_018115 LUA#63 (Experiment 2, Tretinoin): 1238 and 1270 and 1440 and 1028 and 1210 and 935.5 and 1175 and 1004
FlexMap NM_018164 LUA#69 (Experiment 2, Tretinoin): 198 and 200 and 205.5 and 182 (2×) and 188.5 and 186 and 211
FlexMap NM_018256 LUA#83 (Experiment 2, Tretinoin): 568 and 635.5 and 455 and 571 and 556 and 643 and 655 and 483.5
FlexMap NM_018890 LUA#33 (Experiment 2, Tretinoin): 934 and 873 and 1071 and 983 and 992 and 923.5 and 879 and 988
FlexMap NM_019058 LUA#75 (Experiment 2, Tretinoin): 177.5 and 194 (2×) and 192 and 181.5 and 179 and 176 and 171
FlexMap NM_020117 LUA#78 (Experiment 2, Tretinoin): 697 and 734 (2×) and 750 and 739 and 606 and 654 and 748
FlexMap NM_021103 LUA#41 (Experiment 2, Tretinoin): 2724 and 2581.5 and 2331.5 and 2558 and 2559 and 793 and 1990 and 2996.5
FlexMap NM_021203 LUA#80 (Experiment 2, Tretinoin): 657.5 and 657 and 757.5 and 703 and 701.5 and 650 and 660 and 741
FlexMap NM_021974 LUA#64 (Experiment 2, Tretinoin): 1286.5 and 1160 and 1272 and 1368.5 and 1315 and 1193.5 and 1269 and 1365
FlexMap NM_024045 LUA#65 (Experiment 2, Tretinoin): 178 and 149 and 163.5 and 164.5 and 175.5 and 158 and 157 and 182
FlexMap TFRC LUA#92 (Experiment 2, Tretinoin): 346 and 400.5 and 413 and 375 and 381 and 358 and 345.5 and 382
FlexMap signal, transcript NM_000070 (LUA#2) [1]: 437.5 and 358 and 444 (2×) and 393 (2×) and 419 and 422
FlexMap signal, transcript NM_000153 (LUA#10) [1]: 487 and 484 and 539 and 511 and 505 and 473 and 501 and 542
FlexMap signal, transcript NM_000632 (LUA#12) [1]: 369.5 and 476 and 491.5 and 406 and 400 and 360.5 and 374 and 395
